Experimental data reported in publication PMC4779441 (International journal of peptide research and therapeutics, 2015).

Tested on: HCT-116 cells
Assay: In vitro cells' growth inhibition assay
Conditions: Homo sapiens, HCT-116, 48 h, read-out: EC50 [µM] HCT-116

CC(=O)O[C@@]12CO[C@@H]1C[C@H](O)[C@@]1(C)C(=O)[C@H](O)C3=C(C)[C@@H](OC(=O)[C@H](O)[C@@H](NC(=O)OC(C)(C)C)c4ccccc4)C[C@@](O)([C@@H](OC(=O)c4ccccc4)[C@H]21)C3(C)C [DTX, Docetaxel]
EC50: 74.5 ± 3.7 µM
